≈ marks a conversion by molar mass, not a printed value.
How the values were obtained:
[1] = system: mouse leukemia L1210 cells; test: Inhibition of DNA synthesis in L1210 culture cells (14C-thymidine intake); format: cell-based; settings: read-out: 50% Inhibitory Concentration (IC50), Inhibition of DNA Synthesis
Description: (§1) L 1210 cells of 5×10^4 /ml were inoculated on, e.g., RPM 11640 medium (Rosewellberg Research Laboratories) containing 20% bovine serum and, the substances of the present invention were added thereto, respectively, in a concentration of 0.02 to 0.25 μg/ml in a similar fashion. Cultivation was performed at 37° C. in a carbon dioxide culture bottle. Then, a 50% inhibitory action against proliferation was determined based on control fraction. Further, the aforesaid L 1210 culture cell was suspended in 10% bovine serum-containing RPM 11640 medium in a concentration of 5×10^5 /ml. After cultivating at 37° C. for 1 to 2 hours in a carbon dioxide culture bottle, the substance was added in various concentrations and, ^14 C-uridine (0.05 μCi/ml) or ^14 C-thymidine (0.05 μCi/ml) was further added thereto 15 minutes after followed by culturing at 37° C. for 60 minutes. A cold 10% trichloro-acetic acid was added to the reaction solution to discontinue the reaction and at the same time, matters insoluble in the acid were precipitated. After washing further twice with cold 5% trichloroacetic acid, the insoluble matters were dissolved in formic acid and, radioactivity was measured. A 50% intake inhibitory concentration was determined from an intake rate of radioactivity, based on the control fraction to which no substance was added.

[2] = system: mouse leukemia L1210 cells; test: Inhibition of RNA synthesis in L1210 culture cells (14C-uridine intake); format: cell-based; settings: read-out: 50% Inhibitory Concentration (IC50), Inhibition of RNA Synthesis
Description: as §1

[3] = system: mouse leukemia L1210 cells; test: Inhibition of proliferation of cultured mouse leukemia L1210 cells; format: cell-based
Description: as §1

mouse L1210 leukemia = test: In vivo anti-tumor activity against mouse L1210 leukemia; settings: day 1 to day 10, CDF1 mice, n = 6
Text: Inoculation: 1 × 10^5 cell/mouse (i.p.)
Treatment: day 1 to day 10 (i.p.)

[4] = 1 h, L1210 cells 5×10^5/ml, 10% bovine serum, 14C-thymidine, 60 minutes, 37° C.
[5] = 1 h, L1210 cells 5×10^5/ml, 10% bovine serum, 14C-uridine, 60 minutes, 37° C.
[6] = L1210 cells 5×10^4/ml, 20% bovine serum, 37° C., read-out: 50% Inhibitory Concentration (IC50), Inhibition of Cell Proliferation

CCC1(O)CC(OC2CC(N)C(O)C(C)O2)c2c(O)c3c(c(O)c2C1C(=O)OC)C(=O)c1cccc(O)c1C3=O (stereo not shown) [D788-6]
IC50 ([1]; L1210, 1 h): 2.6 µg/mL (≈ 4.66 µM)
IC50 ([2]; L1210, 1 h): 1.3 µg/mL (≈ 2.33 µM)
IC50 ([3]; L1210, read-out: 50% Inhibitory Concentration (IC50), Inhibition of Cell Proliferation): 0.25 µg/mL (≈ 0.448 µM)

CCC1(O)CC(OC2CC(N)C(O)C(C)O2)c2c(O)c3c(c(O)c2C1O)C(=O)c1cccc(O)c1C3=O (stereo not shown) [D788-7]
IC50 [1, 4]: 0.29 µg/mL (≈ 0.563 µM)
IC50 [2, 5]: 0.68 µg/mL (≈ 1.32 µM)
Anti-tumor Effect T/C(%) (mouse L1210 leukemia; 4 μg/kg/day i.p.): 102%
Anti-tumor Effect T/C(%) (mouse L1210 leukemia; 8 μg/kg/day i.p.): 104%
Anti-tumor Effect T/C(%) (mouse L1210 leukemia; 16 μg/kg/day i.p.): 133%
Anti-tumor Effect T/C(%) (mouse L1210 leukemia; 32 μg/kg/day i.p.): 187%
Anti-tumor Effect T/C(%) (mouse L1210 leukemia; 62.5 μg/kg/day i.p.): 204%
Anti-tumor Effect T/C(%) (mouse L1210 leukemia; 125 μg/kg/day i.p.): 172%
Anti-tumor Effect T/C(%) (mouse L1210 leukemia; 250 μg/kg/day i.p.): 100%
IC50 [3, 6]: 0.0003 µg/mL (≈ 0.000582 µM)

CC(O)C1=Cc2c(O)c3c(c(O)c2[C@@H](O[C@H]2C[C@H](N)[C@H](O)[C@H](C)O2)C1)C(=O)c1c(O)cccc1C3=O (stereo partly shown) [D788-8]
IC50 [1, 4]: 3.4 µg/mL (≈ 6.83 µM)
IC50 [2, 5]: 1.58 µg/mL (≈ 3.18 µM)
IC50 [3, 6]: 0.22 µg/mL (≈ 0.442 µM)

COC(=O)C1c2c(O)c3c(c(O)c2C(OC2CC(N)C(O)C(C)O2)CC1(O)C(C)=O)C(=O)c1c(O)cccc1C3=O (stereo not shown) [D788-9]
IC50 [1, 4]: 4.2 µg/mL (≈ 7.35 µM)
IC50 [2, 5]: 2.59 µg/mL (≈ 4.53 µM)
IC50 [3, 6]: 0.22 µg/mL (≈ 0.385 µM)

CC1OC(OC2CC(O)(C(C)O)C(C(=O)O)c3c(O)c4c(c(O)c32)C(=O)c2c(O)cccc2C4=O)CC(N)C1O (stereo not shown) [D788-10]
IC50 [1, 4]: 10 µg/mL (≈ 17.9 µM)
IC50 [2, 5]: 10 µg/mL (≈ 17.9 µM)
IC50 [3, 6]: 0.083 µg/mL (≈ 0.148 µM)
